Results reported in US10694742B2, “Composition comprising a pesticide and a hydroxyalkyl polyoxylene glycol ether” (BASF SE, priority 2014, dated 2020).

Key:
Puccinia triticina = experiment: Greenhouse biological activity on infected wheat; assay type: in vivo, Puccinia triticina on wheat (species Kanzler); conditions: sprayed three days after infection, rated after ten days, three replicates
Method: The biological activity was assessed in a greenhouse on wheat (species “Kanzler”), which was infected with Puccinia triticina at two leafes stage and incubated for three days at high humidity. The plants were sprayed (spray volume 200 l/ha) with a composition comprising 50 ppm (10 g/ha or 2.5 g/ha dose rate) epoxiconazole and 100 ppm (20 g/ha) of the respective Compounds 1-7. In the comparative example no adjuvant was added. The plants were further cultivated for ten days at 20-24° C. and 60-90% relative humidity. Finally, the percentage of the infected leaf area (pustules) was visually inspected. Each value was based on three replicates.

Septoria and Brown rust = experiment: Field trial winter wheat, yield; assay type: in vivo, winter wheat (var. Akteur); conditions: for Yield Winter Wheat, Relative Yield (%): half rate (N/2) Epoxiconazole SC 125 applied twice at BBCH 32 and 51, adjuvant 150 ml/ha in tank mix, comparative experiment = 100.0
Method: (§1) Field studies were conducted on a Parabraunerde soil in accordance with GEP in southern Germany on commercially planted winter wheat (var. Akteur) and winter rapeseed (var. Genie), respectively, exposed to a maritime climate. The standard experimental design was a randomized complete block with 4 replicates. There was no artificial infestation. Fungicides were applied at their label rate (N) and when mixed with adjuvants in the tank, at half rate (N/2). Dose rate of adjuvants was 150 ml/ha. Efficacy was measured by yield in dt/ha. Following the analysis of variance a mean separation test (Student-Newman-Keuls) was applied at a 5% significance level. All treatments were fully selective.
Spray volume was 200 l/ha applied with an AirMix 110-03 nozzle at a pressure of 1.9 bar. Plots were in 2.5 m by 7 m large. Epoxiconazole SC 125 with a dispersing additive (based on naphthalene sulfonic acid formaldehyde condensation product, sodium salt) was applied twice at the growth stages (BBCH) 32 and 51. During the course of trial, there was a natural infestation of Septoria and Brown rust. In each treatment, the dose rate of adjuvants was 150 ml/ha.
(§2) For a quantitative measure, the yield of each treatment was determined.

Wheat plants = experiment: Uptake rate of pesticide into sprayed wheat leaves (HPLC-MS/MS); assay type: in vivo, Triticum aestivum variety Melon; conditions: 125 g/ha epoxiconazole, 125 g/ha fluxapyroxad, 250 g/ha adjuvant compound; 200 l/ha; leaves sampled after 8 days
Description: Wheat plants (Triticum aestivum variety Melon) were cultivated in the greenhouse for 6 weeks up to development stage BBCH 39. The plants were transferred to an automatic lab track sprayer and they were sprayed with 125 g/ha epoxiconazole, 125 g/ha fluxapyroxad, and 250 g/ha of the respective Compound 1-5 according to the following parameters:
Nozzle type: Air injector, ID 120 02 (Lechler, Germany)
Subsequently to spraying, the plants were cultivated again in the greenhouse under ambient conditions. After 8 days samples of 10-15 treated leaves were cut off and weighed.
Leaves were cut into small pieces, transferred into glass bottles and washed with 50% methanol in demineralized water as washing medium for 5 min. Then, the washing medium was separated from the leaves. The leaves were washed again with washing medium for 5 min. […]
Finally, the leaves were transferred to a vial containing the extraction medium (75% methanol, 20% water and 5% HCl) and homogenized using a Polytron PT 6100 dispersing unit (Kinematica, CH) for 2 min. […] The residue was solubilized in methanol/water 50:50 and analyzed by HPLC-MS/MS.
An Agilent 1100 series HPLC coupled to an Applied Biosystems API 3000 triple quadrupole mass spectrometer, equipped with an electro spray ionization source, was used. […] According to the recovery rate the measured sample values were corrected. […]

Sclerotinia sp. = experiment: Field trial rapeseed, yield; assay type: in vivo, winter rapeseed (var. Genie); conditions: half rate (N/2) Cantus Gold SC applied at BBCH 51; adjuvant 150 ml/ha in tank mix; comparative experiment = 100.0
Method: as §1
Spray volume was 250 l/ha applied with an AirMix 110-03 nozzle at a pressure of 2.1 bar. Plots were in 3 m by 7 m large. Cantus® Gold SC (200 g/l Boscalid and 200 g/l Dimoxystrobin with a dispersing additive based on benzenesulfonic acid, hydroxy-, polymer with formaldehyde, phenol and urea, sodium salt) was applied at the growth stage (BBCH) 51 of rapeseed on a Parabraunerde soil. During the course of trial, there was a natural infestation of Sclerotinia sp. In each treatment, the dose rate of adjuvants was 150 ml/ha.
as §2

Compound	Infected leaf area 2,5 g/ha dose rate (Puccinia triticina; epoxiconazole 2,5 g/ha + 100 ppm (20 g/ha) adjuvant compound) [%]	Infected leaf area 10 g/ha dose rate (Puccinia triticina; epoxiconazole 10 g/ha + 100 ppm (20 g/ha) adjuvant compound) [%]	Yield Winter Wheat, Relative Yield (%) (Septoria and Brown rust)	Epoxiconazole Uptake Rate [%] (Wheat plants)	Yield Rapeseed, Relative Yield (%) (Sclerotinia sp.)	Improvement of yield of the half rate (N/2) compared to N/2 alone, wheat (Septoria and Brown rust; N/2 epoxiconazole + adjuvant 150 ml/ha, Student-Newman-Keuls, 5% significance level)
Fc1ccc([C@]2(Cn3cncn3)O[C@H]2c2ccccc2Cl)cc1 (racemic) [epoxiconazole]	78	48	103.5	19		
CCCCCCCCC(O)COCCOCCOCCOCCOCCOCCOCCOCCOCCOCC(CC)CCCC (stereo not shown) [Compound C]			109.4		104.6	significant improvements
